The term IC50 denotes the concentration needed to halve the response being measured. Low values mean greater potency, high ones weaker potency.

Here are results for one compound from BindingDB's records for patent US20230312571 (Fujian Akeylink Biotechnology, 2023).

The experiment addresses Replicase polyprotein 1a (Severe acute respiratory syndrome coronavirus 2, UniProt P0DTC1). In words: Evaluation of the in Vitro Anti-Novel Coronavirus Mpro Protease Activity. On the procedure:
The compound was dissolved in DMSO, and diluted in a 3-fold gradient with Echo655 according to the concentration requirements to 10 concentration points, and duplicate tests were set at each concentration, and the diluted solution was added to a 384-well plate. Mpro protein and substrate were diluted with test buffer (100 mM NaCl, 20 mM Tris-HCl, 1 mM EDTA), and Mpro protein was added to the 384-well test plate, incubated with the compound for 30 min at room temperature, and then the substrate was added thereto, and the test concentration of Mpro protein was 25 nM, and the test concentration of substrate was 25 µM. After incubating for 60 minutes in a 30° C. constant temperature incubator, the fluorescence signal value of Ex/Em=340 nm/490 nm was detected by microplate reader. At the same time, the background well containing the substrate and compound but not containing Mpro protein was detected as control.

In turn, `N#C[C@H](C[C@@H]1CCNC1=O)NC(=O)[C@@H]1[C@H]2CC[C@H](C2)N1C(=O)[C@@H](NC(=O)C(F)(F)F)C1CCCCC1` [US20230312571, Compound 2] returned an IC50 of 249 nM.
